Experimental data as given in publication PMC6431521, “Synthesis and Evaluation of ^18F-Labeled Peptide for Gonadotropin-Releasing Hormone Receptor Imaging” (Contrast Media & Molecular Imaging, 2019).

Target: T1, human GnRH membrane preparations (GnRH receptor) (Homo sapiens, UniProt P30968)
T1 construct: purchased Millipore ChemiScreen HTS027M
T1 sequence (P30968 1-328): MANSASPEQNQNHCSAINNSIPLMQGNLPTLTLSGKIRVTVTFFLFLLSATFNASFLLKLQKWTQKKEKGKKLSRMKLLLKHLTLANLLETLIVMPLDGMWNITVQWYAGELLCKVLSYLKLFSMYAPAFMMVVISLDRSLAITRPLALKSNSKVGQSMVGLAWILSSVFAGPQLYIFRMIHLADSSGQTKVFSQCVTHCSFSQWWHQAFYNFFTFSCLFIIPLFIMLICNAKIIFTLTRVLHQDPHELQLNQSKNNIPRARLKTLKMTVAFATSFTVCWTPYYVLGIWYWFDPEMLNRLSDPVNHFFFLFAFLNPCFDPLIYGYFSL
Assay: In vitro competitive GnRH receptor binding assay
Conditions: for IC50: competitive binding, Millipore ChemiScreen human GnRH membrane preparations, radioligand [131I](His5, D-Tyr6)GnRH, 10^-11 to 10^-5 M peptide, room temperature 1.5 h, pH 7.4, gamma counter, n=3, read-out: GnRH receptor binding affinity IC50
Method: GnRH membrane preparations were obtained from Millipore ChemiScreen (HTS027M). The GnRH receptor binding affinities (IC50 values) of FP-D-Lys^6-GnRH, D-Lys^6-GnRH, and NOTA-P-D-Lys^6-GnRH were determined by in vitro competitive binding assay according to the manufacturer's protocol. In brief, 5 μL of Millipore ChemiScreen human GnRH membrane preparations was incubated at room temperature for 1.5 h with approximately 20,000 counts per minute (cpm) of [^131I](His^5, D-Tyr^6)GnRH in the presence of 10^−11 to 10^−5 M of each peptide in 95 μL of binding buffer (50 mM HEPES, 5 mM MgCl2, 1 mM CaCl2, 0.2% BSA, buffer to pH 7.4 using 1 M NaOH). After the incubation, 600 μL of ice-cold washing buffer (50 mM HEPES, 500 mM NaCl, 0.1% BSA, buffer to pH 7.4 using 1 M NaOH) was added to each mixture. Each resulting mixture was filtered through a GF/C filter (Whatman, Clifton, NJ) presoaked in 0.33% polyethylenimine. Each filter was rinsed with 1 mL of ice-cold wash buffer six times. The activities on the filters were measured in a gamma counter (γ-counter).
The GnRH receptor affinities for FP-D-Lys^6-GnRH, D-Lys^6-GnRH, and NOTA-P-D-Lys^6-GnRH were determined using human GnRH membrane preparations and [^131I](His^5, D-Tyr^6)GnRH as the radioligand.

[1] = ratio of IC50 values, GnRH receptor binding

| SMILES | Decrease of GnRH receptor binding affinity versus D-Lys6-GnRH [1] | IC50 | Potency higher than the reference D-Lys6-GnRH [1] |
| --- | --- | --- | --- |
| CC(C)C[C@H](NC(=O)[C@@H](CCCCNC(=O)CCOCCOCCOCCNC(=O)CN1CCN(CC(=O)O)CCN(CC(=O)O)CC1)NC(=O)[C@H](Cc1ccc(O)cc1)NC(=O)[C@H](CO)NC(=O)[C@H](Cc1c[nH]c2ccccc12)NC(=O)[C@H](Cc1c[nH]cn1)NC(=O)[C@@H]1CCC(=O)N1)C(=O)N[C@@H](CCCNC(=N)N)C(=O)N1CCC[C@H]1C(=O)NCC(N)=O [NOTA-P-D-Lys^6-GnRH] | approximately 4 fold | – | – |
| CC(C)C[C@H](NC(=O)[C@@H](CCCCNC(=O)C(C)F)NC(=O)[C@H](Cc1ccc(O)cc1)NC(=O)[C@H](CO)NC(=O)[C@H](Cc1c[nH]c2ccccc12)NC(=O)[C@H](Cc1c[nH]cn1)NC(=O)[C@@H]1CCC(=O)N1)C(=O)N[C@@H](CCCNC(=N)N)C(=O)N1CCC[C@H]1C(=O)NCC(N)=O (stereo partly drawn) [FP-D-Lys^6-GnRH] | – | 2 nM | approximately 8 fold |
| CC(C)C[C@H](NC(=O)[C@@H](CCCCN)NC(=O)[C@H](Cc1ccc(O)cc1)NC(=O)[C@H](CO)NC(=O)[C@H](Cc1c[nH]c2ccccc12)NC(=O)[C@H](Cc1cnc[nH]1)NC(=O)[C@@H]1CCC(=O)N1)C(=O)N[C@@H](CCCNC(=N)N)C(=O)N1CCC[C@H]1C(=O)NCC(N)=O [D-Lys^6-GnRH, reference compound] | – | 15.8 nM | – |
